Values joined by “and” are separate entries in the source; they are usually repeats but may differ in a detail not shown here. Equal values may be shown once.

What all share (design): species or system bovine
Assay [1] is described as follows: Experiment 1: remineralization of demineralised enamel, surface microhardness (SMH) after single overnight treatment with calcium sources. The conditions noted are these: single overnight immersion 16 hours, 37°C; for Mean (%SMR): percentage surface microhardness recovery. The procedure: This in vitro study was designed to compare the remineralization efficacy of the test products, following a single, overnight treatment application.
Bovine enamel blocks were sectioned, machine polished and flattened. The baseline surface microhardness of the enamel samples was measured with a Buehler MicroMet 5103 surface microhardness machine.
Each bovine enamel block was demineralised for 1 hour by immersing the sample at 37°C, in a demineralization solution described by Huang et. al. (2009)^1. Following demineralization, the surface microhardness of each enamel sample was remeasured.
All demineralized enamel samples were subjected to an overnight immersion in the assigned test product, with immersion solutions mixed and heated to 37°C during treatment. Following the overnight immersion, the surface microhardness of the enamel samples was remeasured. The study logistics were designed so that each enamel sample was demineralized and then immersed in the assigned treatment on the same day.
The ability of a single, overnight application of test products and controls to repair enamel lesions was assessed by comparing the percentage surface microhardness recoveries and the changes in surface microhardness for the treated samples.
One hundred and thirty enamel blocks, measuring 4 x 4 mm, were cut from bovine incisors and lapped planar-parallel using a Logitech PM5 lapping machine. The enamel surfaces of the samples were machine-polished using a MetPrep Saphir 550 to a final finish of 0.04 microns. One corner of each block was removed in order to ensure correct orientation on the SMH machine.
The baseline surface microhardness of the enamel samples was measured using a calibrated Buehler MicroMet 5103 microhardness indenter and Knoop diamond indenter tip.
The enamel samples were orientated with the abraded corner in the top right. Baseline surface microhardness indents were placed in the centre of the enamel samples. Five Knoop indents were placed in a vertical line at each timepoint (under a load of 50 g for 10 seconds). Surface imperfections were avoided, and outlying indents replaced.
A demineralization solution was prepared according to the following specifications: • ▪ 50 mM Acetic acid • ▪ 2.2 mM Calcium nitrate • ▪ 2.2 mM Potassium phosphate monobasic • ▪ 0.1 ppm Sodium fluoride • ▪ Final pH of the solution was adjusted to 4.5 with sodium hydroxide.
Enamel samples were mounted onto acetate squares using double-sided tape. Enamel samples were immersed in 8 ml demineralization solution per sample and placed into an oven for 1 hour (37 °C). […]
The post-demineralization surface microhardness of the enamel samples was measured using a calibrated Buehler MicroMet 5103 microhardness indenter and Knoop diamond indenter tip. […]

Assay [2] in a line: Experiment 2: surface microhardness recovery of demineralised enamel, aspartic acid with or without tricalcium phosphate. The conditions noted are these: single treatment 16 hours at 37°C, solutions pH 6-6.5, n=10. As for the experimental part:
Enamel blocks were sectioned from bovine teeth, lapped plano-parallel and highly polished. The baseline surface microhardness of the enamel samples was then measured.
The enamel samples were artificially demineralised by immersing them in demineralisation solution for 60 minutes. Following demineralisation, the surface microhardness of the enamel samples was remeasured. The samples were then stratified between the treatment groups based upon the baseline surface microhardness.
(§1) The enamel samples in each treatment group were treated with the assigned test products for 16 hours. Following treatment, the surface microhardness of each treated enamel sample was remeasured.
(§2) The percentage of surface microhardness recovery (%SMHR) achieved by the test products was calculated and used to compare the ability of the test products to repair the demineralised enamel samples.
The pH of each solution was adjusted into the pH range shown in Table 2, using sodium hydroxide or dilute hydrochloric acid. All pH measurements were taken with a calibrated pH electrode (Serial Number: 13-620-631) and either an Accumet XI,250 ion meter (Asset Number: UK01200-LAB-15-002), or an Orion 720 ion meter (Asset Number: 4F064).
Approximately 90 enamel blocks (Measuring 4mm x 4mm) were sectioned from bovine incisors and were lapped plano-parallel (both sides) using a Logitech PM5 lapping machine (Asset number: 4F008).
(§3) The enamel surfaces of the samples were machine-polished with 1 micron and 0.3 micron aluminium oxide slurries, using a MetPrep Saphir 550 Polisher (Asset Number: UK01200-1010015-114).
(§4) The surface microhardness of each block was measured at the following time points: • At baseline. • After the demineralisation treatment. • After overnight treatment.
(§5) The surface microhardness of the enamel samples was measured using a Buehler MicroMet 5103 (Asset Number: 4F101) and OmniMet MHT software.
(§6) The Intertek CRS method for measuring the surface microhardness of the samples at each time point has been provided below: • Five Knoop indents • 50 gram load force • 10 second dwell time • X50 objective
(§7) A demineralisation solution was prepared that contained: • ▪ 50 mM Acetic acid • ▪ 2.2 mM Calcium nitrate • ▪ 2.2 mM Potassium phosphate monobasic • ▪ 0.1 ppm Sodium fluoride
The pH of the solution was adjusted to pH 4.5. All pH measurements were taken with a calibrated pH electrode (Serial Number: 13-620-631) and either an Accumet XI,250 ion meter (Asset Number: UK01200-LAB-15-002), or an Orion 720 ion meter (Asset Number: 4F064). […]
The ability of the test formulations to repair the demineralised enamel samples after a single treatment was assessed by calculating the percentage of surface microhardness recovery values (%SMHR) achieved by each test product. […]

Assay [3] is described as follows: Experiment 3: surface microhardness recovery of demineralised enamel, aspartic acid combined with different calcium sources. The following applies: single treatment 16 hours at 37°C, solutions pH 6 to 6.5 (excluding controls), n=10. The procedure:
Enamel blocks were sectioned from bovine teeth, lapped plane-parallel, and highly polished. The baseline surface microhardness of the enamel samples was measured. The samples were then stratified between the treatment groups based on the baseline surface microhardness values.
The enamel samples were artificially demineralised by immersing them in a demineralisation solution for 60 minutes. Following demineralisation, the surface microhardness of the enamel samples was remeasured.
as §1, §2
The pH of each solution was adjusted into the pH range of pH 6 to 6.5, using sodium hydroxide or dilute hydrochloric acid (Excluding the positive and negative control). All pH measurements were taken with a calibrated pH electrode (Serial Number: VT1 8048) and an Accumet XI,250 ion meter (Asset Number: UK01200-LAB-15-002).
Approximately 130 enamel blocks (Measuring 4mm x 4mm) were sectioned from bovine incisors and were lapped plano-parallel (both sides) using a Logitech PM5 lapping machine (Asset number: 4F008).
as §3, §4, §5, §6, §7
The pH of the solution was adjusted to pH 4.5. All pH measurements were taken with a calibrated pH electrode (Serial Number: VT1 8048) and an Accumet XI,250 ion meter (Asset Number: UK01200-LAB-15-002.
The enamel blocks were demineralised by placing the samples into a Sterilin containing 8mL of demineralisation solution per sample. All demineralisation exposures were performed for 60 minutes, in an oven set to 37°C for 60 minutes.
The enamel samples were placed into their assigned test solutions for 16 hours at 37°C, whilst being agitated with a magnetic stirrer. Aquasil Putty was used to attach the 10 enamel blocks in each treatment group to a sample holder with the enamel surfaces of the samples exposed.
Following the removal of the samples from the test product, each enamel block was rinsed with deionised water for 1-2 minutes and sonicated for 10 minutes to remove any loose debris. The enamel samples were then returned to their original containers.
The ability of the test formulations to repair the demineralised enamel samples after a single treatment was assessed by calculating the percentage of surface microhardness recovery values (%SMHR) achieved by each test product.
The formula for calculating the %SMHR values achieved by each treatment is shown below: % SMRH = 100∗[(SMHPost-treatment−SMHPost-demineralisation)/(SMH; Baseline−SMH Post-demineralisation)] [formula]

The nature of assay [4]: Summary of 3 experiments in comparison with negative and positive controls. The following applies: Water (Negative control) 0 units; for Comparison: units better than fluoride / Comparison: units worser than negative control / Comparison: units better than negative control: scale: Fluoride (Positive control) 100 units. From the text: Table 10. Summary of 3 experiments in comparison with negative and positive controls

Turning to `[F-].[Na+]` [1450 ppm F, Sodium Fluoride, reference compound], the “Mean (%SMR)” value in assay [1] (n = 10) stood at 35.5556%; in assay [1] (n = 10, listed as 1450 ppm Fluoride control), 36%. Moreover, the “Mean Change in SMH” value in assay [1] (post-treatment SMH minus demineralisation SMH (Knoop), n = 10) amounted to 25.12. The “mean SMH increase” value in assay [1] (rounded values in the text) came out at 25 HK units. The “Mean %SMHR” value in assay [2] is reported as 14%; in assay [2] (listed as 1450 ppm Fluoride (Positive control)), 14.12%. The “Mean %SMHR Value” in assay [3] came to 5.15%. Further, the “Comparison: units” value in assay [4] (position on the scale) worked out at 100 units.
As for `N[C@@H](CC(=O)O)C(=O)O` [Aspartic acid 0,1% in artifical saliva, Aspartic acid], in assay [4], the “Comparison: units better than fluoride” value is “for 2 units better than fluoride”.
Consider `N[C@@H](CC(=O)O)C(=O)O` [Aspartic acid 0.2 % in distilled water, Aspartic acid], for which the results for the “Mean %SMHR Value” in assay [3] and in assay [3] (listed as 0.2% Aspartic acid) were -87.69% and -88%, respectively. Further, the “Comparison: units worser than negative control” value in assay [4] is on record as “for 70 units worser than negative control”.
`N[C@@H](CC(=O)O)C(=O)O` [Aspartic acid 0,2% in artificial saliva, Aspartic acid]: the “Mean %SMHR Value” in assay [3] was 16,21%. Moreover, in assay [4] (listed as Aspartic acid 0,2% in artifical saliva), the “Comparison: units better than fluoride” value is on record as “for 25 units better than fluoride”.
Consider `N[C@@H](CC(=O)O)C(=O)O` [Aspartic acid 0.4 %, Aspartic acid], for which the entries for the “Mean %SMHR Value” in assay [3] and in assay [3] (listed as 0.4% Aspartic acid) were -91.74% and -92%, respectively. Also, in assay [4] (listed as Aspartic acid 0,4% in distilled water), the “Comparison: units worser than negative control” value is “for 82 units worser than negative control”.
For `N[C@@H](CC(=O)O)C(=O)O` [Aspartic Acid 0.1 %, L-Aspartic Acid], in assay [2], the “Mean %SMHR” value was 3.19%. Besides, the “Comparison: units better than negative control” value in assay [4] is “for 65 units better than negative control”.
Turning to `N[C@@H](CC(=O)O)C(=O)O` [Aspartic Acid 0.5 %, L-Aspartic Acid], the “Mean %SMHR” value in assay [2] was -37% and -37.32%. Also, the “Comparison: units better than negative control” value in assay [4] (listed as Aspartic acid 0,5% in distilled water) was “for 90 units better than negative control”.
Turning to `N[C@@H](CC(=O)O)C(=O)O` [Aspartic acid 0.05 %, Aspartic acid], in assay [3], the “Mean %SMHR Value” was -35.13%. Besides, the “Comparison: units better than negative control” value in assay [4] (listed as 0,05% Aspartic acid) is “for 17 units better than negative control”.
